BigSolDB 2.1

O=C(O)c1ccc(C(=O)O)cc1
solubility (mole fraction)
Details | 303.2 K | 313.2 K | 323.2 K | 333.2 K | 343.2 K | 353.2 K | 363.2 K
in DMAc | 0.016 | 0.0211 | 0.0269 | 0.0331 | 0.0385 | 0.0452 | 0.0524
in NMP | 0.0133 | 0.0155 | 0.0188 | 0.0216 | 0.0256 | 0.0287 | 0.0328
